Tests used:
[1] = target: ER (endogenous, MCF7 cells) (Homo sapiens (Human), UniProt P03372); experiment: ER transcription assay (MCF7 cells), ERE-luciferase reporter; assay type: cell-based; details: inflection point of the inhibition of transcription in MCF7 cells; 0.1 nM estradiol, 24 hours; read-out: MCF7 IC50
Excerpt: ER Transcription Assay (MCF7 Cells)
The ER transcription assay is a reporter assay that is based on the ability of ER to induce transcription from a luciferase reporter gene containing estrogen response elements (EREs) in the promoter/enhancer region. When the reporter gene is transfected in MCF7 cells (containing endogenous ER), transcription is reflected by the level of luciferase expression.
A day before transfection, cells are split into a T75 flask at a cell density of 300,000 cells/mL (10 mL total) and allowed to attach overnight in a humidified CO2 incubator at 37° C.
Approximately 20 ug DNA is mixed in OptiMEM (Invitrogen) to a total volume of 650 μL. Following incubation, the OptiMEM-DNA mixture is added to the OptiMEM-Lipofectin mix and incubated for 15 minutes at 37° C. The DNA-Lipofectin mixture is then added directly to the T75 flask and the flask is returned to the incubator.
Normally, DMSO (used as a vehicle) is included to achieve a final concentration of 0.1% when added to the cells. Transfected cells are trypsinized, resuspended in DMEM/F12/10% charcoal-stripped serum and added to the 96-well plate at 25,000 cells/well in 90 μL of media. The plate is then returned to the incubator for 24 hours.
After incubation with compounds for 24 hours, Firefly and Renilla luciferase activities are measured to determine ER transcriptional activity. Media is removed from 96-well plates by decanting and blotting on paper towels.
One second total read time after a one second delay.
One second total read time after one second delay. If Firefly luciferase signal is high, Renilla assay must be done an hour after the Firefly assay due to incomplete squelching of Firefly signal.
(§1) The column titled MCF7 IC50 reports the inflection point of the inhibition of transcription in MCF7 cells as described above. Percentage ERα remaining reports the remaining ERα protein measured at 10 μM concentration of the ligand as described above. The column ERα IC50 reports the inflection point of the degradation in response to the ligand concentration.

ERα = ERα (Homo sapiens (Human), UniProt P03372); experiment: ERα degradation (MCF7 cells), in-cell Western; assay type: cell-based; details: MCF7 cells; for IC50: inflection point of the degradation in response to ligand concentration; for % ERα remaining: remaining ERα protein at 10 μM ligand, relative to DMSO control
Description: ERα Degradation (MCF7 Cells)
as §1

ERα, sequence (P03372 whole entry): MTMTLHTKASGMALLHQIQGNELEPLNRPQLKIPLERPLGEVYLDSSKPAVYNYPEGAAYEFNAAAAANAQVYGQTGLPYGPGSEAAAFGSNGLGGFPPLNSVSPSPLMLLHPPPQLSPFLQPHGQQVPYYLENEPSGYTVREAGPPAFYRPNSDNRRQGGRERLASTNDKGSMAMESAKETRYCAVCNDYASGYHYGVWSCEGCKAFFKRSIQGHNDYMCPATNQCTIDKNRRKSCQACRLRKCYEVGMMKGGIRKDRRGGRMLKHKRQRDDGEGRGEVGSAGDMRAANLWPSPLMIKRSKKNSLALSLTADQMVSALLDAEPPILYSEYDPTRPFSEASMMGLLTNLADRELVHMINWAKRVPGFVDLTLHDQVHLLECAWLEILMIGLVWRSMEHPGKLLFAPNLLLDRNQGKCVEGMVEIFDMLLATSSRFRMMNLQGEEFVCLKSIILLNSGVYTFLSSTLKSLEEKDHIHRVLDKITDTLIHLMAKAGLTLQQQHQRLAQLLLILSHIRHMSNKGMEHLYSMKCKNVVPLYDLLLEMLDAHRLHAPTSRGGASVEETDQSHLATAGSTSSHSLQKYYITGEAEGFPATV
ER (endogenous, MCF7 cells), sequence (P03372 whole entry): as above

SMILES | IC50 [1] | IC50 (ERα) | % ERα remaining (ERα)
O=C(O)/C=C/c1ccc(Oc2c(-c3ccccc3C3CCCC3)sc3cc(O)ccc23)cc1 [Example 87, (E)-3-(4-((2-(2-cyclopentylphenyl)-6-hydroxybenzo[b]thiophen-3-yl)oxy)phenyl)acrylic acid] | 14 nM | 0.4 nM | 15%
O=C(O)/C=C/c1ccc(Oc2c(-c3ccccc3C3CCC3)sc3cc(O)ccc23)cc1 [Example 89, (E)-3-(4-((2-(2-cyclobutylphenyl)-6-hydroxybenzo[b]thiophen-3-yl)oxy)phenyl)acrylic acid] | 19 nM | 0.5 nM | 18%
O=C(O)/C=C/c1ccc(Oc2c(-c3cccc(F)c3C(F)(F)F)sc3cc(O)ccc23)cc1 [Example 90, (E)-3-(4-((2-(3-fluoro-2-(trifluoromethyl)phenyl)-6-hydroxybenzo[b]thiophen-3-yl)oxy)phenyl)acrylic acid] | 26 nM | 1.2 nM | 15%
COc1ccc(-c2sc3cc(O)ccc3c2Oc2ccc(/C=C/C(=O)O)cc2)c(C(F)(F)F)n1 [Example 91, (E)-3-(4-((6-hydroxy-2-(6-methoxy-2-(trifluoromethyl)pyridin-3-yl)benzo[b]thiophen-3-yl)oxy)phenyl)acrylic acid] | 23 nM | – | 16%
O=C(O)/C=C/c1ccc(Oc2c(-c3ccccc3CN3CCCC3)sc3cc(O)ccc23)cc1 [Example 92, (E)-3-(4-((6-hydroxy-2-(2-(pyrrolidin-1-ylmethyl)phenyl)benzo [b]thiophen-3-yl)oxy)phenyl)acrylic acid] | 29 nM | – | 16%
CC(C)c1ccccc1-c1sc2cc(O)ccc2c1Oc1ccc(CCC(=O)O)cc1 [Example 93, 3-(4-((6-hydroxy-2-(2-isopropylphenyl)benzo [b]thiophen-3-yl)oxy)phenyl)propanoic acid] | 72 nM | 1.6 nM | 25%
N#CCc1ccccc1-c1sc2cc(O)ccc2c1Oc1ccc(/C=C/C(=O)O)cc1 [Example 94, (E)-3-(4-((2-(2-(cyanomethyl)phenyl)-6-hydroxybenzo[b]thiophen-3-yl)oxy)phenyl)acrylic acid] | 86 nM | – | 20%
Cn1nnc(Cc2ccccc2-c2sc3cc(O)ccc3c2Oc2ccc(/C=C/C(=O)O)cc2)n1 [Example 96, (E)-3-(4-((6-hydroxy-2-(2-((2-methyl-2H-tetrazol-5-yl)methyl)phenyl)benzo [b]thiophen-3-yl)oxy)phenyl)acrylic acid] | 212 nM | 1.7 nM | 14%
O=C(O)/C=C/c1ccc(Oc2c(-c3ccccc3CN3CCC3)sc3cc(O)ccc23)cc1 [Example 97, (E)-3-(4-((2-(2-(azetidin-1-ylmethyl)phenyl)-6-hydroxybenzo[b]thiophen-3-yl)oxy)phenyl)acrylic acid] | 292 nM | 25 nM | 18%
CC(C)c1cccc(-c2sc3cc(O)ccc3c2Oc2ccc(/C=C/C(=O)O)cc2)c1 [Example 98, (E)-3-(4-((6-hydroxy-2-(3-isopropylphenyl)benzo[b]thiophen-3-yl)oxy)phenyl)acrylic acid] | 382 nM | 6.6 nM | 19%
O=C(O)/C=C/c1ccc(Oc2c(-c3ccc(F)cc3CN3CCCC3=O)sc3cc(O)ccc23)cc1 [Example 99, (E)-3-(4-((2-(4-fluoro-2-((2-oxopyrrolidin-1-yl)methyl)phenyl)-6-hydroxybenzo[b]thiophen-3-yl)oxy)phenyl)acrylic acid] | 544 nM | – | 14%
Cc1ncccc1-c1sc2cc(O)ccc2c1Oc1ccc(/C=C/C(=O)O)cc1 [Example 100, (E)-3-(4-((6-hydroxy-2-(2-methylpyridin-3-yl)benzo[b]thiophen-3-yl)oxy)phenyl)acrylic acid] | 669 nM | 5.4 nM | 12%
CC(C)c1ccccc1-c1sc2c(F)c(O)ccc2c1Oc1ccc(/C=C/C(=O)O)cc1 [Example 101, (E)-3-(4-((7-fluoro-6-hydroxy-2-(2-isopropylphenyl)benzo [b]thiophen-3-yl)oxy)phenyl)acrylic acid] | 4.2 nM | 0.2 nM | 18%
CCCc1nnc(/C=C/c2ccc(Oc3c(-c4ccccc4C(C)C)sc4cc(O)ccc34)cc2)o1 [Example 103, (E)-2-(2-isopropylphenyl)-3-(4-(2-(5-propyl-1,3,4-oxadiazol-2-yl)vinyl)phenoxy)benzo [b]thiophen-6-ol] | 12 nM | 3.3 nM | 31%
CC(C)c1ccccc1-c1sc2cc(O)ccc2c1Oc1ccc(/C=C/c2nnc(C3CC3)o2)cc1 [Example 104, (E)-3-(4-(2-(5-cyclopropyl-1,3,4-oxadiazol-2-yl)vinyl)phenoxy)-2-(2-isopropylphenyl)benzo [b]thiophen-6-ol] | 32 nM | – | 29%
Cc1nnc(/C=C/c2ccc(Oc3c(-c4ccccc4C(C)C)sc4cc(O)ccc34)cc2)[nH]1 [Example 105, (E)-2-(2-isopropylphenyl)-3-(4-(2-(5-methyl-4H-1,2,4-triazol-3-yl)vinyl)phenoxy)benzo [b]thiophen-6-ol] | 14 nM | 1.1 nM | 25%
CCCc1nnc(/C=C/c2ccc(Oc3c(-c4ccccc4C(C)C)sc4cc(O)ccc34)cc2)[nH]1 [Example 107, (E)-2-(2-isopropylphenyl)-3-(4-(2-(5-propyl-4H-1,2,4-triazol-3-yl)vinyl)phenoxy)benzo [b]thiophen-6-ol] | 66 nM | 4 nM | 29%
O=C(O)/C=C/c1ccc(Oc2c(-c3ccccc3CC(F)(F)F)sc3cc(O)ccc23)cc1 [Example 109, (E)-3-(4-((6-hydroxy-2-(2-(2,2,2-trifluoroethyl)phenyl)benzo[b]thiophen-3-yl)oxy)phenyl)acrylic acid] | 12 nM | 0.2 nM | 16%
CC(F)c1ccccc1-c1sc2cc(O)ccc2c1Oc1ccc(/C=C/C(=O)O)cc1 (stereo not drawn) [Example 111, (E)-3-(4-((2-(2-(1-fluoroethyl)phenyl)-6-hydroxybenzo[b]thiophen-3-yl)oxy)phenyl)acrylic acid] | 25 nM | 0.3 nM | 17%
CC/C(=C\c1ccc(Oc2c(-c3ccccc3C(C)C)sc3cc(O)ccc23)cc1)C(=O)O [Example 113, (E)-2-(4-((6-hydroxy-2-(2-isopropylphenyl)benzo [b]thiophen-3-yl)oxy)benzylidene) butanoic acid] | 62 nM | 2.2 nM | 24%
CC/C(=C\c1ccc(Oc2c(-c3ccc(O)cc3)sc3cc(O)ccc23)cc1)C(=O)O [Example 114, (E)-2-(4-((6-hydroxy-2-(4-hydroxyphenyl)benzo [b]thiophen-3-yl)oxy)benzylidene) butanoic acid] | 216 nM | 6.4 nM | 35%
CC(C)c1ncoc1-c1sc2cc(O)ccc2c1Oc1ccc(/C=C/C(=O)O)cc1 [Example 115, (E)-3-(4-((6-hydroxy-2-(4-isopropyloxazol-5-yl)benzo[b]thiophen-3-yl)oxy)phenyl)acrylic acid] | 267 nM | 5.3 nM | 15%
C[C@@H](O)c1ccccc1-c1sc2cc(O)ccc2c1Oc1ccc(/C=C/C(=O)O)cc1 [Example 116, (R,E)-3-(4-((6-hydroxy-2-(2-(1-hydroxyethyl)phenyl)benzo[b]thiophen-3-yl)oxy)phenyl)acrylic acid] | 306 nM | 12 nM | 24%
CC(C)c1ccccc1-c1sc2cc(O)ccc2c1Oc1ccc(/C=C/C(=O)O)nc1 [Example 117, (E)-3-(5-((6-hydroxy-2-(2-isopropylphenyl)benzo [b]thiophen-3-yl)oxy)pyridin-2-yl)acrylic acid] | 54 nM | – | 16%
CC(C)c1ccccc1-c1sc2cc(O)ccc2c1Nc1ccc(/C=C/C(=O)O)cc1 [Example 118, (E)-3-(4-((6-hydroxy-2-(2-isopropylphenyl)benzo [b]thiophen-3-yl)amino)phenyl)acrylic acid] | 68 nM | 2.8 nM | 14%
CC(C)c1ccccc1-c1sc2cc(O)ccc2c1N(C)c1ccc(/C=C/C(=O)O)cc1 [Example 119, (E)-3-(4-((6-hydroxy-2-(2-isopropylphenyl)benzo [b]thiophen-3-yl)(methyl)amino)phenyl) acrylic acid] | 109 nM | 6.2 nM | 19%
